# Measurements taken from patent US11795223B2, “Combination therapies for treating myelodysplastic syndromes and acute myeloid leukemia” (Forty Seven, Inc., priority 2019, dated 2023).
# What was measured:
# MDS = conditions: cited from earlier work
# [1] = Phase 1 trials of Hu5F9-G4 monotherapy; type: in vivo; conditions: Phase 1 trial
# human AML = assay: nonclinical xenograft models of human AML; type: in vivo; conditions: mice
# [2] = pivotal randomized trial leading to azacitidine approval in MDS
molecule,measurement,setting,value
Nc1ncn([C@@H]2O[C@H](CO)[C@@H](O)[C@H]2O)c(=O)n1 [azacitidine],known CR rate,MDS; azacitidine alone,17.85%
same,"CR+PR rate, point estimate",MDS; [2],15.7%
same,"CR+PR rate, upper bound of the 1-sided 95% confidence interval",MDS; [2],23.5%
"Hu5F9-G4: humanized IgG4 kappa monoclonal antibody targeting human CD47; heavy chain SEQ ID NO: 50, light chain SEQ ID NO: 51",maximum tolerated dose (MTD),[1],has not been reached
same,tolerability,[1],well tolerated
same,leukemic disease in the peripheral blood and bone marrow,human AML,robust elimination of leukemic disease in the peripheral blood and bone marrow which results in long term remissions in a high percentage of mice treated
